Structures are written as SMILES.

This data set in a line: gradient 5% acetonitrile 3 min, to 50% in 2 min, to 85% in 15 min, held 3 min, 100 µL/min. Particulars: column: Zorbax Extend-C18 2.1 x 50 mm; eluents: water / acetonitrile, 0.1% formic acid. Put shortly:
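In both positive and negative ionization mode, a quadrupole time-of-flight mass spectrometer coupled to HPLC analyzed pure standards run in mixtures of ~100 molecules. The Zorbax Extend-C18 column (2.1 × 50 mm, 1.8 μm) was operated at 100 μL/min with water and acetonitrile, each containing 0.1% formic acid. The dead volume was 40 μL and the dwell volume 900 μL. Retention time came from adduct peaks that were computationally picked and individually inspected by hand.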
Consider `COc1ccc(Nc2c(C(=O)N3CCCCCC3)cnc3nc(C)ccc23)cc1`, for which the RP-LC retention time came out at 638 s. The compound `O=S(=O)(c1ccc2nc(N3CCN(c4ccc(F)cc4)CC3)ccc2c1)N1CCCCC1` registered an RP-LC retention time of 1050 s. For `CCCOc1ccc(-c2csc(NC(=O)CN3C(=O)CCC3=O)n2)cc1`, the RP-LC retention time came out at 816 s. The same measure for `O=C(NCc1cccnc1)c1cccn2c(=O)c3cc(Cl)ccc3nc12`: 657 s.

The compound `c1ccc(-c2nc(N3CCCCCC3)c3ccccc3n2)cc1` came in with an RP-LC retention time of 768 s.

With `Cc1ccsc1C(=O)Nc1cccn2nc(C(C)C)nc12`, the RP-LC retention time came out at 986 s.

Regarding `CC(C)CN1CCCC(COc2ccccc2C(=O)NC2CC2)C1` (stereo not given), the RP-LC retention time is 606 s.

On to `N#Cc1cccc(C(=O)NC2CCN(c3ccc(F)cc3)C2=O)c1` (stereo not given), for which the RP-LC retention time was determined as 768 s. For the compound `Cc1nnc(C2CCCCCN2C(=O)c2ocnc2C)o1` (stereo not given), the RP-LC retention time is 628 s.

In the case of `NCC(O)COCC1COc2ccccc2O1` (stereo not given), the RP-LC retention time was 549 s. With `Cc1ccc(C(=O)NCc2nc(-c3ccc(-c4csc(C5CC5)n4)cc3)no2)cc1`, the RP-LC retention time stood at 1110 s. The same measure for `Brc1ccc(-c2ccc(CNCc3cccnc3)o2)c(Br)c1`: 686 s. For the compound `Cc1ccc(-c2nc(C3CCN(S(=O)(=O)c4ccc(C)c(C)c4)CC3)no2)cc1`, the RP-LC retention time is 1320 s. As to `Cn1c(Cn2c(=O)sc3ccccc32)nnc1SCC(=O)N1CCc2ccccc21`, the RP-LC retention time is 746 s. The same measure for `O=C(Nc1cc(C(F)(F)F)cc(C(F)(F)F)c1)Nc1c(Br)cc(Br)cc1-c1nn[nH]n1`: 1130 s; for `Cc1ccn2cc(-c3ccc(NC(=O)C(C)(C)C)cc3)nc2n1`: 616 s.

For the compound `COc1ccccc1CNC(=O)CCC1CCN(c2cc(NC3CC3)ncn2)CC1`, the RP-LC retention time was 669 s. `CCOC(=O)C(C(=O)Nc1ccccn1)C1CCCCC1` (stereo not given) came in with an RP-LC retention time of 908 s. The compound `CCC(C)NC(=O)CN1C(=O)C2CCCCN2c2ccc(S(=O)(=O)N3CCCC3)cc21` (stereo not given) yielded an RP-LC retention time of 850 s.

As for `Cc1ccc2c(c1)C1CC(C)(O2)N(c2cccc(C(=O)O)c2)C(=O)N1` (stereo not given), the RP-LC retention time is 912 s.

Turning to `COc1ccc(C(=O)N2CCC(n3c(-c4ccoc4)nc4cccnc43)C2)cc1F` (stereo not given), the RP-LC retention time was determined as 714 s. Consider `CCC(=O)N1CCc2cc(N3CC(C(=O)Nc4cc(C)ccc4F)CC3=O)ccc21` (stereo not given), for which the RP-LC retention time worked out at 768 s.

Compound `O=C(c1ccc(Cl)c(Cl)c1)N1CCN(Cc2nncn2C2CCCCC2)CC1` returned an RP-LC retention time of 708 s. The same measure for `Cc1noc(-c2ccnc(-n3cnc(C(=O)NCCc4ccccc4)c3)c2)n1`: 823 s; for `COc1ccc(N2C(=O)C3N=NN(Cc4nc(-c5ccc(C)c(C)c5)no4)C3C2=O)cc1` (stereo not given): 1050 s; for `CCc1ccc2c(c1)cc(S(=O)(=O)c1ccccc1)c(=O)n2CC(=O)NCCCOC`: 808 s. As for `COc1ccccc1C(=O)Nc1nnc(SCc2nnc(-c3ccccc3)o2)s1`, the RP-LC retention time came to 914 s. For `Cc1cc(C)c(CNC(=O)C2CCN(c3cnc(N4CCSCC4)nc3)CC2)c(C)c1`, the RP-LC retention time came out at 959 s. `Cn1c(NCCN(CCO)CCCc2ccc([N+](=O)[O-])cc2)cc(=O)n(C)c1=O` came in with an RP-LC retention time of 610 s. With `O=C(Cn1nc2c(N3CCSCC3)nccn2c1=O)NCCc1ccc(Cl)cc1`, the RP-LC retention time was determined as 850 s.

As to `COc1ccc(NS(=O)(=O)c2ccc(-c3nnc(C4CCC4)o3)o2)cc1`, the RP-LC retention time turned out to be 864 s. In the case of `Cc1ccc2nc(Nc3nccc(C)n3)nc(C)c2c1`, the RP-LC retention time was 616 s. For `CC(C)CN(Cc1cccnc1)C1CN(C(=O)NCc2ccc(F)cc2)C1`, the RP-LC retention time worked out at 640 s. The same measure for `CCOc1ccccc1NC(=O)NCc1nc(-c2ccccc2)oc1C`: 963 s; for `COC(=O)c1c(C)[nH]c(C(=O)N2CCCC(C(=O)NC3CC3)C2)c1C` (stereo not given): 627 s.

As to `Fc1ccccc1-c1nc(-c2cccc(-c3ccn[nH]3)c2)no1`, the RP-LC retention time is 977 s.

`COc1cccc(-n2ccn3cc(-c4ccc(Cl)cc4)nc3c2=O)c1` had an RP-LC retention time of 875 s. As to `Cc1ccccc1Cn1nc2ccc(S(=O)(=O)N3CCOCC3)cn2c1=O`, the RP-LC retention time stood at 818 s.

Turning to `Cc1noc(-c2ccc(NC(=O)c3cnn(-c4ccccc4)n3)cc2)n1`, the RP-LC retention time was found to be 980 s. On to `Cc1ccc(Cn2c(CN3CCC(C(=O)NC(C)C)CC3)cc3ccccc32)cc1`, for which the RP-LC retention time stood at 747 s.

`O=C(Nc1ccccc1)NC1CCCN(c2cc(-c3ccncc3)[nH]n2)C1` (stereo not given): the RP-LC retention time came to 602 s. With `O=C(C1CC(=O)N(c2n[nH]c3cccc(F)c23)C1)N1CCN(c2ccc(Cl)cc2)CC1` (stereo not given), the RP-LC retention time came to 817 s. To `Cc1ccc(Nc2c(-c3cc(Br)ccc3F)nc3ccccn23)cc1` belongs 801 s.

With `Cc1ccc(C)c2c(=O)c3c([nH]c12)CCN(CC(=O)Nc1ccccc1F)C3`, the RP-LC retention time turned out to be 641 s. The same measure for `COc1ccc(CNC(=O)N2CCC(COCc3ccccc3)CC2)cc1OC`: 814 s. On to `c1ccc(O[C@H]2CN(C3CCNCC3)[C@H]2c2ccncc2)cc1`, for which the RP-LC retention time was determined as 552 s. For `COc1ccc(OCC(=O)Nc2ccc3c(c2)N(C(=O)c2ccco2)CCC3)cc1`, the RP-LC retention time came out at 861 s. As to `COc1cccc(S(=O)(=O)Nc2ccc3c(c2)CCC(=O)N3CC(C)C)c1`, the RP-LC retention time worked out at 868 s. On to `CCOc1cc2c(cc1OCC)C1C(C(=O)N3CCN(CC)CC3)c3ccccc3C(=O)N1CC2` (stereo not given), for which the RP-LC retention time was found to be 638 s.

Turning to `Cc1noc(-c2ccc(OC3CN(C(=O)NCc4ccc(F)cc4)C3)cc2)n1`, the RP-LC retention time came out at 831 s. Regarding `O=C(c1ccccc1Br)N1CCN(Cc2nc(-c3ccccc3)cs2)CC1`, the RP-LC retention time was 773 s. The same measure for `c1ccc2c(c1)c(-c1noc(-c3ccncc3)n1)nn2CCN1CCCCC1`: 642 s; for `CCCCN(Cc1nc2nc(C)cc(C)n2n1)C(=O)c1ccccc1`: 757 s. The compound `O=C(CCc1nnc2c3cc(-c4ccc(F)cc4)nn3ccn12)NCCc1cccnc1` registered an RP-LC retention time of 601 s. Turning to `O=S(=O)(c1cc(F)ccc1F)N1CCc2nc(-c3ccc(Cl)cc3)ncc2C1`, the RP-LC retention time worked out at 1210 s. The compound `COc1cccc(CNC(=O)C2CCCN(c3nn4c(=O)c5c(nc4s3)CCCC5)C2)c1` (stereo not given) registered an RP-LC retention time of 737 s. For the compound `CN(C)CC(O)Cn1c2ccc(Br)cc2c2cc(Br)ccc21` (stereo not given), the RP-LC retention time is 782 s. To `COc1ccc(CNC(=O)C2CCCN(c3nnc4cccc(C)n34)C2)c(OC)c1` (stereo not given) belongs 688 s; to `CC1(C(=O)NCc2ccccc2)CN(S(C)(=O)=O)CC(=O)N1CCc1ccc(Cl)cc1` (stereo not given), 874 s. The same measure for `Cc1cc(=O)n(CC(=O)NCc2ccc(F)cc2F)c(N)n1`: 596 s; for `COc1ccc(CC(=O)N2CCCC2c2cc(C(C)C)on2)cc1OC` (stereo not given): 800 s; for `Cc1cccc(NC(=O)CN2C(=O)NC3(CCCCC3)C2=O)c1C`: 765 s. As for `CC(C)c1noc(-c2cc(=O)n(CC(=O)Nc3ccc4c(c3)OCCO4)c3ccccc23)n1`, the RP-LC retention time is 941 s. `COc1ccc(NC(=O)Cn2c(C)nc3c(sc4nc(-c5ccccc5)ccc43)c2=O)cc1Cl` returned an RP-LC retention time of 1090 s. Turning to `CCc1noc(NC(C)=O)c1-c1ccc(C)c(S(=O)(=O)Nc2c(C)cc(C)cc2C)c1`, the RP-LC retention time was determined as 904 s. For `CCOc1ccc(-c2[nH]nc3nc(-c4ccc(OC)cc4)cc(C(=O)O)c23)cc1`, the RP-LC retention time stood at 654 s. Consider `CCCc1noc(-c2nc(-c3ccccc3F)no2)n1`, for which the RP-LC retention time is 1090 s. Compound `Cc1ccc(NC(=O)C2(C)Oc3cccnc3NC2=O)cc1F` (stereo not given) had an RP-LC retention time of 755 s. To `O=C(Nc1ccon1)c1ccc(-n2cccn2)nn1` belongs 659 s; to `CCOc1ccc(NC(=O)Cc2nnc3ccc(C(=O)Nc4ccccc4)cn23)cc1`, 798 s; to `CN1CCN(CCNC(=O)c2cc(-c3cccnc3)nc3ccc(Br)cc23)CC1`, 585 s.

`CSc1ncccc1C(=O)NCC(O)c1ccsc1` (stereo not given) registered an RP-LC retention time of 626 s. For `CC1=NS(=O)(=O)N(C)C=C1C(=O)OCc1c(F)cccc1Cl`, the RP-LC retention time amounted to 968 s.

The compound `COc1ccc(C2Nc3ccccc3NC3=C2C(=O)CC(c2cccs2)C3)cc1OC` (stereo not given) displayed an RP-LC retention time of 730 s.

In turn, `Cc1ncoc1C(=O)N1CCOc2ccc(NC(=O)C3CC3)cc2C1` registered an RP-LC retention time of 659 s. To `O=C(CC1CCN(C(=O)c2ccc3oc(-c4ccccc4)nc3c2)CC1)NC1CC1` belongs 728 s; to `O=C(c1ccc(Cl)s1)N1CCCn2nc(-c3ccncc3)cc2C1`, 623 s; to `COc1ccc(C2C=C(c3ccc4c(c3)OCO4)Oc3c2c(=O)oc2ccccc32)cc1OC` (stereo not given), 1090 s.

Turning to `O=C(NCc1ccco1)c1ccc2ccnc(N3CCN(c4ccc(Cl)cc4)CC3)c2c1`, the RP-LC retention time is 858 s. `CCOc1ccc(S(=O)(=O)Nc2ccc(-c3cn4ccc(C)nc4n3)cc2)c(OCC)c1`: the RP-LC retention time came to 691 s.

For the origin of these results see the METLIN SMRT retention time set (Domingo-Almenara et al. 2019).
